Legend:
UM-UC-3 cells [1] = test: MTT and colony-formation assays of UM-UC-3 cells transfected with siRNA expression vectors; type: cell-based, human; conditions: UM-UC-3 cells transfected with siRNA expression vector, neomycin selection
Source text: si-ZNF224#2: 5′-CCGCAGGAACACATCAAGA-3′ (SEQ ID NO: 10) for the ZNF224-specific sequence. DNA sequences of all constructs were confirmed by DNA sequencing. Eight-micrograms each of siRNA-expression vector were transfected into UM-UC-3 cells (1×10^6 cells per 10 cm-dish), respectively, using FuGENE6 transfection reagent (Roche) according to the supplier's recommendations. To evaluate the knockdown effect of siRNAs by semi-quantitative RT-PCR with specific primers (see below), total RNAs were extracted from the transfected cells after 4-day incubation with neomycin (Geneticin, Invitrogen). The specific primer sets for RT-PCR are as follows; 5′-[…]-3′ (SEQ ID NO: 11) and 5′-[…]-3′ (SEQ ID NO: 12) for ZNF224;
(§1) 5′-[…]-3′ (SEQ ID NO: 13) and 5′-[…]-3′ (SEQ ID NO: 14) for GAPDH as a quantitative control. The transfected UM-UC-3 cells were cultured for 21 or 14 days in the presence of 1.0 mg/ml of neomycin, and the number of colonies were counted by Giemsa staining. Viability of UM-UC-3 cells was evaluated by 3-(4,5-dimethylthiazol-2-yl)-2,5-diphenyltetrazolium bromide (MTT) assay at 14 days after the treatment of neomycin with cell counting kit-8 according to manufacturer's recommendation (Wako, Osaka, Japan). Absorbance at 570 nm wavelength was measured with a Microplate Reader 550 (Bio-Rad, Hercules, Calif.). These experiments were performed in triplicate.

ZNF224 transcript = test: Semiquantitative RT-PCR of knockdown effect of ZNF224 siRNA expression vectors in UM-UC-3 cells; type: cell-based, human; conditions: compared with si-EGFP control
Experimental: It has been previously established a vector-based RNA interference (RNAi) system, psiU6BX3.0 that was designed to express small interfering RNAs (siRNA) in mammalian cells (Shimokawa T, et al., Cancer Res 2003 63:6116-20). Plasmids designed to express siRNA to ZNF224 were prepared by cloning of double-stranded oligonucleotides into the BbsI site of psiU6BX vectors. The target sequences of the synthetic oligonucleotides for RNAi were as follows:
si-ZNF224#2: 5′-CCGCAGGAACACATCAAGA-3′ (SEQ ID NO: 10) for the ZNF224-specific sequence. DNA sequences of all constructs were confirmed by DNA sequencing. […] To evaluate the knockdown effect of siRNAs by semi-quantitative RT-PCR with specific primers (see below), total RNAs were extracted from the transfected cells after 4-day incubation with neomycin (Geneticin, Invitrogen). […]
as §1, with “Absorbance at 570 nm wavelength was measured with a Microplate Reader 550 (Bio-Rad, Hercules, Calif.). These experiments were performed in triplicate.” left out

DEPDC1-ZNF224 complex = biological target: T1, DEPDC1-ZNF224 complex (Homo sapiens, UniProt Q9NZL3, H562R/M118V); test: Immunoprecipitation of exogenous DEPDC1-HA and ZNF224-FLAG complex in peptide-treated COS7 cells; type: cell-based; conditions: for complex formation between exogenously expressed DEPDC1-HA and ZNF224-Flag (immunoprecipitation): six peptides added 6 hours after transfection, immunoprecipitation fifteen hours later
T1 construct: expressed in transfected cells; host or cells: COS7 cells, transiently co-transfected (pCAGGS-type vectors)
T1 sequence (Q9NZL3 whole entry M118V/H562R, one chain of several): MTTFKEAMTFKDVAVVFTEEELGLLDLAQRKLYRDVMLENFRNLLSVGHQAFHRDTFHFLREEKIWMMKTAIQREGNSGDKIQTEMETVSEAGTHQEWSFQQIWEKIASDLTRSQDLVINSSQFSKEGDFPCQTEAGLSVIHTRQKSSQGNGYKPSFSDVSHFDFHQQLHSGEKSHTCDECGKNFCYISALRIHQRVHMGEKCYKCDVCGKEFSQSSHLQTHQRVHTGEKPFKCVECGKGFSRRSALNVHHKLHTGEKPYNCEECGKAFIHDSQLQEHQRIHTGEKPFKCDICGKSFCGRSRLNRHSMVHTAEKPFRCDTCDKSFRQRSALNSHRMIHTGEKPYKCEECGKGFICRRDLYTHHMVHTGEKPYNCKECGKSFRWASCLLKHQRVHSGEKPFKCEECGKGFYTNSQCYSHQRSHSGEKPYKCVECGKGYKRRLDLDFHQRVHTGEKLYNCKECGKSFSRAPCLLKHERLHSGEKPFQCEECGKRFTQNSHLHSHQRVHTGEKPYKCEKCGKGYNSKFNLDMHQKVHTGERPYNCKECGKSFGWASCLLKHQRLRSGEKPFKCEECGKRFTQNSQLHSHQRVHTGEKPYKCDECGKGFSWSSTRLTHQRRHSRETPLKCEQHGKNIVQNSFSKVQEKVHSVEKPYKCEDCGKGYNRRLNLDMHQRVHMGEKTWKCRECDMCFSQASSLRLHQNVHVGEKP
Experimental: To confirm the interaction between DEPDC1 and ZNF224 in bladder cancer cells and identify the ZNF224-binding region in DEPDC1, the immunoprecipitation experiment was carried out as follows. First, it was confirmed interaction between endogenous DEPDC1 and exogenous ZNF224 by immunoprecipitation experiments using anti-DEPDC1 polyclonal antibody for immunoprecipitation and anti-FLAGM2 antibody (Amersham) for immunoblotting. To further determine the ZNF224-binding region in DEPDC1, it was cloned six partial constructs of DEPDC1 (DEPDC11-147, DEPDC1141-300, DEPDC1177-597, DEPDC1300-669, DEPDC1587-740 and DEPDC1654-811) into appropriate sites of COOH-terminal HA-tagged pCAGGS vector. The nucleotide sequence of each clones were determined with an ABI Prism 3700 DNA sequencer (Applied Biosystems, Foster City, Calif.), using each primer. Cell extracts from Cos7 cell line, transfected with each of plasmids expressing one of these six partial segments of DEPDC1, were precleared by incubation at 4 degrees C. for 1 hour with 100 micro 1 of protein G-agarose beads in final volumes of 2 mL of immunoprecipitation buffer (0.5% NP40, 50 mmol/L Tris-HCl, 150 mmol/L NaCl) in the presence of proteinase inhibitor. After centrifugation at 1,000 rpm for 5 minutes at 4 degrees C., the supernatants were incubated at 4 degrees C. with anti-HA rat for 1 hours. After the beads were collected from each sample by centrifugation at 5,000 rpm for 2 minutes and washed six times with 1 mL of immunoprecipitation buffer, the washed beads were re-suspended in 50 uL of Laemmli sample buffer and boiled for 3 minutes before the proteins were separated on 10% SDS-PAGE gels. Immunoblot was done using anti-HA rat antibody and anti-FLAGM2 monoclonal antibody, respectively (Sigma-Aldrich Co., St. Louis, Mo.).
To examine the effect of these polyarginine (11R)-linked peptides on inhibition of the DEPDC1-ZNF224 complex formation, they were co-transfected with DEPDC1 and ZNF224 constructs into COS7 cells. […] Immunoprecipitation were performed according to methods as described in “Identification of the ZNF224-binding regions in DEPDC1 protein” section.

DLG1 = test: Quantitative RT-PCR of downstream gene DLG1 in UM-UC-3 cells; type: cell-based, human
Experimental: (§2) UM-UC-3 cells were transfected with siRNA against DEPDC1 (si-DEPDC1), ZNF224 (si-ZNF224-2) or EGFP (control siRNA). The target sequences of the synthetic oligo-duplex for siRNA against DEPDC1 (Sigma Aldrich) were as follows: si-DEPDC1,5′-CCAAAGUUCCGUAGUCUAA-3′(SEQ ID NO: 75), ZNF224 (si-ZNF224-2) or EGFP as described in “RNA interference assay” section.
(§3) Total RNAs were extracted from each sample at 12 hours and 24 hours after the transfection, labeled with Cy5 (for si-DEPDC1- and si-ZNF224-2-transfected cells) or Cy3 (for si-EGFP-transfected cells), and subjected to cohybridization onto cDNA microarrayslides containing 36468 cDNA or ESTs as described previously (Takata R, et al., Clin Cancer Res 2005 11:2625-36). After normalization of the data, it was excluded genes from further analysis when Cy5 and Cy3 dyes yielded signals intensities lower than the cut-off value. For other genes, the Cy5/Cy3 ratio was calculated using the raw data of each samples. […] Validation of candidate downstream genes of both DEPDC1 and ZNF224 was carried out with quantitative RT-PCR analysis using the SYBR green dye (Rhoche) and the same amplified RNAs from UM-UC-3 cells used for cDNA microarray experiments, with each gene-specific primer as follows;
(§4) All experiments were performed in duplicate. The calculated quantity of the target gene for each sample was then divided by the average calculated quantity of beta 2-microglobulin (beta 2-MG) corresponding to each sample to give a relative expression of the target gene for each sample

NF-kappaB (p65) = test: Immunocytochemical staining of nuclear NF-kappaB (p65) in UM-UC-3 cells; type: cell-based, human; conditions: UM-UC-3 cells treated with peptide for 12 hours
Experimental: For detection of NF-kappaB expression in the nucleus after treatment with dominant-negative peptide (see “Dominant-negative peptide section”), UM-UC-3 cells (1×10^5) were seeded and then treated with each peptide for 12 hours. Subsequently, immunocytochemical staining was performed using anti-NF-kappaB (p65) monoclonal antibody (diluted at 1:200) (Santa Cruz, Calif., USA). Fluorescent images and nuclear intensity of NF-kappaB (p65) protein were obtained under a TCS SP2 AOBS microscope (Leica, Tokyo, Japan). For the image analysis, the nuclear signal intensities of NF-kappaB (p65) were measured by observing nuclei of 50 cells treated with the 11R-DEP611-628 peptide or scramble peptide (see “Dominant-negative peptide section”). Assays were performed in triplicate independently.

UM-UC-3 cells [2] = test: MTT assay of cell viability of UM-UC-3 bladder cancer cells treated with 11R peptides; type: cell-based, human
Experimental: UM-UC-3 and normal human dermal fibroblast-derived NHDF-Ad cell lines were incubated with the 11R peptides at the concentration of 0, 1, 2, or 3 micromol/L for 5 days. Each peptide was added at every 24 hours at the appropriate concentrations and the viability of cells was evaluated by MTT assay at every day after the treatment.
To examine the effect of DEPDC1611-628 peptide on cell growth of UM-UC-3 and NHDF cells, the cells were incubated with the DEPDC1611-628 or scramble peptides at the concentration of 0, 1, 2, or 3 micro M for 5 days, respectively. Each peptide was added at every 24 hours at the appropriate concentrations and the viability of cells was evaluated by MTT assay every day. Absorbance at 570 nm wavelength was measured with a Microplate Reader 550 (Bio-Rad). These experiments were performed in triplicate.

A20 (TNFAIP3) = test: Quantitative RT-PCR of downstream gene A20 in UM-UC-3 cells; type: cell-based, human; conditions: UM-UC-3 cells transfected with siRNA, compared with siEGFP
Experimental: as §2
as §3, with “After normalization of the data, it was excluded genes from further analysis when Cy5 and Cy3 dyes yielded signals intensities lower than the cut-off value.” left out
as §4

Substance | complex formation between exogenously expressed DEPDC1-HA and ZNF224-Flag (immunoprecipitation) (DEPDC1-ZNF224 complex) | growth of UM-UC-3 cell (MTT and colony-formation assays) (UM-UC-3 cells [1]) | amount of ZNF224 transcript (knockdown effect) (ZNF224 transcript) | further results
5′-CCGATTTGGATGATGAAGA-3′ [si-ZNF224-1] | – | marked suppression growth | significantly suppressed | –
5′-CCGCAGGAACACATCAAGA-3′ [si-ZNF224-2] | – | marked suppression growth | significantly suppressed | DLG1 transcript (quantitative RT-PCR) (DLG1; UM-UC-3 cells transfected with siRNA, compared with siEGFP): time-dependent increase; A20 transcript (quantitative RT-PCR) (A20 (TNFAIP3)): time-dependent increase

Further lines, with some results ahead:

complex formation between exogenously expressed DEPDC1-HA and ZNF224-Flag (immunoprecipitation) (DEPDC1-ZNF224 complex) | Substance | growth of UM-UC-3 cell (MTT and colony-formation assays) (UM-UC-3 cells [1]) | amount of ZNF224 transcript (knockdown effect) (ZNF224 transcript) | further results
not inhibit | RRRRRRRRRRR-GGG-LRMSRLSPNMIMQRPKRL (RRRRRRRRRRRGGGLRMSRLSPNMIMQRPKRL; An artificially synthesised dominant negative peptide) [scramble611-628] | – | – | complex formation of DEPDC1-HA and ZNF224-FLAG (immunoprecipitation) (DEPDC1-ZNF224 complex; four peptides at 3 micro M added 6 hours after transfection, twenty-four hours later): no effect; expression of DLG1 (quantitative RT-PCR) (DLG1; bladder cancer cells after peptide treatment): not; nuclear-staining of NF-kappa B (p65) protein (NF-kappaB (p65)): no effect; cell viability measured by MTT assay (UM-UC-3 cells [2]; UM-UC-3 cells, peptide 1, 2 or 3 micro M added every 24 hours for 5 days): no effect; cell growth or cellular morphology (UM-UC-3 cells [2]; cells treated with peptide, FIG. 5D): no alterations in cell growth or cellular morphology
no inhibition | RRRRRRRRRRR-GGG-ISRMSQNVDMPKLHDAMG (RRRRRRRRRRRGGGISRMSQNVDMPKLHDAMG; An artificially synthesised dominant negative peptide) [11R-DEP624-641, 11R-linked DEPDC1 codons 624-641 peptide] | – | – | –
no inhibition | RRRRRRRRRRR-GGG-NGEKIKHEIINEDQENAI (RRRRRRRRRRRGGGNGEKIKHEIINEDQENAI; An artificially synthesised dominant negative peptide) [11R-DEP159-176, 11R-linked DEPDC1 codons 159-176 peptide] | – | – | –

— patent publication US8975086B2, “Method for treating or preventing bladder cancer using the DEPDC1 polypeptide” (OncoTherapy Science, Inc., priority 2008, dated 2015)
